Among the data in the kinase profiling compilation of Christmann-Franck et al. (2016) are residual activity values, retold here.

Usually residual activity stands for the activity still measured, relative to the control. A higher residual activity goes with a small loss of activity.

Among the targets are AKT3 (human) (UniProt Q9Y243); CAMK2B (human) (UniProt Q13554); CAMK2D (human) (UniProt Q13557); CDK3 CCNE1 (human) (UniProt Q00526+P24864); CHEK1 (human) (UniProt O14757); DAPK3 (human) (UniProt O43293); GRK7 (human) (UniProt Q8WTQ7); RPS6KA5 KD2 (human) (UniProt O75582); STK33 (human) (UniProt Q9BYT3); YES1 (human) (UniProt P07947).
What all share (assay): radiometric filter-binding kinase assay, Kinase HotSpot
Holding throughout (conditions): compound 0.5 µM; ATP 10 µM

Assay [1] concerns the target JAK1 JH1 catalytic (human) (UniProt P23458).

GRK7 (human), sequence (Q8WTQ7 whole entry, looked up): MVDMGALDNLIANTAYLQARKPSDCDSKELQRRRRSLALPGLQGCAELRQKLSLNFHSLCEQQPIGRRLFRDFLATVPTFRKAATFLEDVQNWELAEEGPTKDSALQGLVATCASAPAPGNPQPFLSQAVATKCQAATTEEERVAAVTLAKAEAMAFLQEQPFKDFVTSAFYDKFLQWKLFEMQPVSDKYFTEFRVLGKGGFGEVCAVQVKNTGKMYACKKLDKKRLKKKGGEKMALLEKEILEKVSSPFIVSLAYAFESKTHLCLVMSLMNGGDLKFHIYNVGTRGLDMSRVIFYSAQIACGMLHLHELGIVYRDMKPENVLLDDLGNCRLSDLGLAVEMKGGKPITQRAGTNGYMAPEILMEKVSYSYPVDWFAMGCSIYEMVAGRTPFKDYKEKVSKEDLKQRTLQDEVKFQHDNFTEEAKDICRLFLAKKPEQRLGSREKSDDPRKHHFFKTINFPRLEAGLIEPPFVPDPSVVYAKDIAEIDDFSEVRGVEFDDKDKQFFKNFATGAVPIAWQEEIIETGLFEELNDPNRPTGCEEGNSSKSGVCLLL
CAMK2B (human), sequence (Q13554 whole entry, looked up): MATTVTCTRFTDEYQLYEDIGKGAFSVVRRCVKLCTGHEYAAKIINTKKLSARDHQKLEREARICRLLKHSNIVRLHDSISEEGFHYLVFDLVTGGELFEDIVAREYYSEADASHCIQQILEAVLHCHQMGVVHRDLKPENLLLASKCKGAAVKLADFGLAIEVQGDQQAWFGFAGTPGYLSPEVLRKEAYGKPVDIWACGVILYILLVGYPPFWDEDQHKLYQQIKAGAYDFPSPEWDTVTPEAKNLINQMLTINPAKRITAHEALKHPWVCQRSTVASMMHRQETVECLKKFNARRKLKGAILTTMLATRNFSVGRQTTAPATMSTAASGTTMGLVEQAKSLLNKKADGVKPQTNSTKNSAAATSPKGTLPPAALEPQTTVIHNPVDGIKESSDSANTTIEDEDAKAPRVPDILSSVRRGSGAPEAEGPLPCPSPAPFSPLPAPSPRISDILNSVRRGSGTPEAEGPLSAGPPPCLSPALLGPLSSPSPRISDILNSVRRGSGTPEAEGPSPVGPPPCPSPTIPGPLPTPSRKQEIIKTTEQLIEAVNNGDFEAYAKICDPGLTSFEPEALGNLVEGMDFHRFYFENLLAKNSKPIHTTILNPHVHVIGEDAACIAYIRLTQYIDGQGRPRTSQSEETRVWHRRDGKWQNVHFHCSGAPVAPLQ
AKT3 (human), sequence (Q9Y243 whole entry, looked up): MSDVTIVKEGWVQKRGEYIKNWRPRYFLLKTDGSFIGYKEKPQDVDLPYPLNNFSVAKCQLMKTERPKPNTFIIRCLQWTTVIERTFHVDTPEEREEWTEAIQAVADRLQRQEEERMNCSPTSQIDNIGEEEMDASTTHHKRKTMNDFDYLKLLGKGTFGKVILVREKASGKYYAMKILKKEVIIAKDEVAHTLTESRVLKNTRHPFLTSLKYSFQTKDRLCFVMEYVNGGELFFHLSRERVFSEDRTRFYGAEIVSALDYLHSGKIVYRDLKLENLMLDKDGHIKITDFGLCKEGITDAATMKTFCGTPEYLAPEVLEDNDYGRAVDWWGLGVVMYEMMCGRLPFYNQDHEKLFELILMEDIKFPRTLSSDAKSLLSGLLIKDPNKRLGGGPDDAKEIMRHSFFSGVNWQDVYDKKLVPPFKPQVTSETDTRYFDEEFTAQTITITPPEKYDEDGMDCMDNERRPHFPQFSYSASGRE
CDK3 CCNE1 (human), sequence (P24864 whole entry, looked up): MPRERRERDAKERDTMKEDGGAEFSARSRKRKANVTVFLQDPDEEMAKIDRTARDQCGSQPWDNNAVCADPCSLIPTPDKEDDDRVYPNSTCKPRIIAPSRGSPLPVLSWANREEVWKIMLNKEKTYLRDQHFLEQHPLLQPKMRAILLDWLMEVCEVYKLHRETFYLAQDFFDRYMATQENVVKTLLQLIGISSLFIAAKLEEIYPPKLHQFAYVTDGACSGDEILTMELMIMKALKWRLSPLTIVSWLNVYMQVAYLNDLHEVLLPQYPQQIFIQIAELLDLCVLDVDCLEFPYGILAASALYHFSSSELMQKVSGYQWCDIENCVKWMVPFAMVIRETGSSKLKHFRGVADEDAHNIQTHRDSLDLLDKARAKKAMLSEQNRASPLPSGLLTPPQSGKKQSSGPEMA
CDK3 CCNE1 (human), sequence (Q00526 whole entry, looked up): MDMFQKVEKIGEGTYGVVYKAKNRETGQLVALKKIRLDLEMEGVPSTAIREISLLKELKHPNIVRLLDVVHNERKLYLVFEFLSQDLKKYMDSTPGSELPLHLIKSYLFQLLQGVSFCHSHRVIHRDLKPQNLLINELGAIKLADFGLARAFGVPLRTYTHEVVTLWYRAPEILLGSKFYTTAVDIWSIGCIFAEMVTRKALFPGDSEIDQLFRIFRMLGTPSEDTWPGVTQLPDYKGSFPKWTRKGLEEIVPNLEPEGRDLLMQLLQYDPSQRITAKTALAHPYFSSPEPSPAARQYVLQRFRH
RPS6KA5 KD2 (human), sequence (O75582 whole entry, looked up): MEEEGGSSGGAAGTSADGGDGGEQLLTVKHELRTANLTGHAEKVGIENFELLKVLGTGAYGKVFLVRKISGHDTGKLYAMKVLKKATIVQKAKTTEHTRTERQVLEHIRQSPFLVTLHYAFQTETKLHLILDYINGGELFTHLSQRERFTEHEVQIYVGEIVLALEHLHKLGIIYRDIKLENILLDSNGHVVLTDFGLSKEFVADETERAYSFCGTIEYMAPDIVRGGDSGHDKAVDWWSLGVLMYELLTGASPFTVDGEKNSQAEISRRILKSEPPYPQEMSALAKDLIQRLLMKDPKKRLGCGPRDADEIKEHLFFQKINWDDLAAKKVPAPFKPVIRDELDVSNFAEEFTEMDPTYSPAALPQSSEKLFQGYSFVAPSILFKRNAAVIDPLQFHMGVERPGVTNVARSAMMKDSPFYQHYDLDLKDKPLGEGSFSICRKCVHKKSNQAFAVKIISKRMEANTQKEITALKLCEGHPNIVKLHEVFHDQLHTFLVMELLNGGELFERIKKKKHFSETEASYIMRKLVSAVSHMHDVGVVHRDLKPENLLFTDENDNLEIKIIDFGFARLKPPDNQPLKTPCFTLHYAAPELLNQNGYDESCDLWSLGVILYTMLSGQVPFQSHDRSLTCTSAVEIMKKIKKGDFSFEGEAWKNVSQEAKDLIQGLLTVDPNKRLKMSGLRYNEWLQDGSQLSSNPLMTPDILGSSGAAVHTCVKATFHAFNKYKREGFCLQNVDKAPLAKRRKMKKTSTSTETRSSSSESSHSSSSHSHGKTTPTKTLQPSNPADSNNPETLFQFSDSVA
DAPK3 (human), sequence (O43293 whole entry, looked up): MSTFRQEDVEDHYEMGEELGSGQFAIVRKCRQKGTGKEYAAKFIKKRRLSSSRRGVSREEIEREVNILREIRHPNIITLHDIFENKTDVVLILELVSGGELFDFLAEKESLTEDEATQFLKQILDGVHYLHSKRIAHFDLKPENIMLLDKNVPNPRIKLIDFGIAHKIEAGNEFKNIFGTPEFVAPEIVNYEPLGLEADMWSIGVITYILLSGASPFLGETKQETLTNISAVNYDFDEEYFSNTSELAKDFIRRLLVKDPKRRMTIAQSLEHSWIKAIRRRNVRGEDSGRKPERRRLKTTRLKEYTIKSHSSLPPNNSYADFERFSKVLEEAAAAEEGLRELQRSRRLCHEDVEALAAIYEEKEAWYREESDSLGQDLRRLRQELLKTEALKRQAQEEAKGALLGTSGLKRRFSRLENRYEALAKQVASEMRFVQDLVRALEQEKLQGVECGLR
CAMK2D (human), sequence (Q13557 whole entry, looked up): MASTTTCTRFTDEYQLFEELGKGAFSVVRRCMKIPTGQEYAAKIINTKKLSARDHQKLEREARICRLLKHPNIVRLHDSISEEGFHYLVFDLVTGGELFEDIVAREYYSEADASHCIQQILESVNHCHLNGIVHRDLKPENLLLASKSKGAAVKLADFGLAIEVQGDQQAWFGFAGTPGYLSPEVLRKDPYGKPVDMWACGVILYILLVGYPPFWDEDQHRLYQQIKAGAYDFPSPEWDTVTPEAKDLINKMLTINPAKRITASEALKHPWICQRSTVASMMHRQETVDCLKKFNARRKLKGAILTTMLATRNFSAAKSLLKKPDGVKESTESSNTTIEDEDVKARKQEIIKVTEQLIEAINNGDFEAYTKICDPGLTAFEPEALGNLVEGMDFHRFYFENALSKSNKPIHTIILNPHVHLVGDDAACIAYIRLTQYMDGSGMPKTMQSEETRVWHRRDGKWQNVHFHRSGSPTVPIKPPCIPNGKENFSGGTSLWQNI
STK33 (human), sequence (Q9BYT3 whole entry, looked up): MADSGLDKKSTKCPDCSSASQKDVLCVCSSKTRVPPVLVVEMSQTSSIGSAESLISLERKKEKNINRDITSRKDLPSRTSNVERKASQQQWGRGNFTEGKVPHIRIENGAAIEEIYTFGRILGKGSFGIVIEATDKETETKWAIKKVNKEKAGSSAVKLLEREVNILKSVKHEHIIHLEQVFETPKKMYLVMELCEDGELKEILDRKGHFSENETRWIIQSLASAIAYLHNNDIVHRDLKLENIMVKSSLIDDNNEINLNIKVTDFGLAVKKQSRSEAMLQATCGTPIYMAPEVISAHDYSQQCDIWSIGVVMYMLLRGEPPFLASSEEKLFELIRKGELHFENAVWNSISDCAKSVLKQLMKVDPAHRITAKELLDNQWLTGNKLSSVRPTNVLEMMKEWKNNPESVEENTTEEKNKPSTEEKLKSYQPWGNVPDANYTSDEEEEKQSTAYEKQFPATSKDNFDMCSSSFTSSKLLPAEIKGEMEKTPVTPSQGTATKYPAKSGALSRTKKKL

With `CN[C@@H]1C[C@H]2O[C@@](C)([C@@H]1OC)n1c3ccccc3c3c4c(c5c6ccccc6n2c5c31)C(=O)NC4`, the residual activity on AKT3 (human) stood at 2.97%; on CAMK2B (human), 1.64%; on CAMK2D (human), 3.05%; on CDK3 CCNE1 (human), 8.24%; on CHEK1 (human), 1.63%; at DAPK3 (human) it was 1.91%. Besides, the residual activity was 0.737% at GRK7 (human); 2.07% in assay [1]; 1.24% on RPS6KA5 KD2 (human); 10.7% on STK33 (human); 4.48% on YES1 (human).
